Values of other authors in patent publication US6528539B1, “Stable formulation containing fumagillin” (Sanofi-Synthelabo, priority 1999, dated 2003).

Conditions: fumagillin as such; must be stored at −80° C.; literature studies named in b6

With `COC1C(OC(=O)/C=C/C=C/C=C/C=C/C(=O)O)CCC2(CO2)C1[C@@]1(C)O[C@@H]1CC=C(C)C` (stereo in doubt) [Fumagillin, 2,4,6,8-decatetraenedioic acid mono[4-(1,2-epoxy-1,5-dimethyl-4-hexenyl)-5-methoxy-1-oxaspiro[2.5]oct-6-yl] ester] as the compound, how does the “stability at ambient temperature” value read?
The value was “highly unstable at ambient temperature”.
